# Measurements: patent US12486279B2, “Indole alkaloid with fungicidal effect” (priority 2020, dated 2025)
# Read-outs that look alike come from different tables or passages of the source.
# Key:
# [1] = tested on: Colletotrichum gloeosporioides; experiment: Minimum inhibitory concentration (MIC), triphenyl tetrazolium chloride reduction, Colletotrichum gloeosporioides; type: cell-based; details: for Growth of the fungus on plates: 7.81 to 250 mg/mL, analyst 1; for Growth of the fungus on plates / Absorbance compared with the control: both days; for Absorbance compared with the control: all 8 concentrations; for MIC: Colletotrichum gloeosporioides
# Experimental: First, its effect on the growth of samples of Colletotrichum gloeosporioides was assessed. The weighting of the activity was established in a spectrophotometric model through the reduction of Triphenyl Tetrazolium Chloride as a measure of […] metabolism (oxide reduction system). The C. gloeosporioides samples were incubated for 24 h at 37° C. in the presence of increasing amounts of Andranone and the control agents Chlorothalonil and Mancozeb. After the indicated time, the amount of formazan produced was assessed by colorimetry, which is indicative of the amount of viable fungal cells after the treatments.
# [2] = tested on: Fusarium oxysporum; experiment: Minimum inhibitory concentration (MIC), Fusarium oxysporum; type: cell-based; details: for Trend of absorbance with concentration: FIG. 6, 2 days; for Growth of the fungus on plates: 15.62-2000 mg/mL
# [3] = tested on: agricultural workers; details: exposed agricultural workers (Dennis et al. 2010); cited from earlier work
# [4] = tested on: women exposed to Mancozeb; details: exposed women (Van Wendel de Joode et al. 2014); cited from earlier work
# [5] = acidic or neutral conditions; cited from earlier work
# [6] = tested on: various fish species; details: 48 to 96 h after exposure; cited from earlier work
# [7] = tested on: Daphnia magna; details: cited from earlier work
# [8] = tested on: small fish; details: cited from earlier work
# [9] = 6 technical replicates, 2 days, with standard deviation, 24 h at 37° C.
compound,measurement,setting,value
Mancozeb,"Minimum inhibitory concentration (MIC), Average Analyst 1",[1]; [9],7.8 ± 0.0 mg/mL
same,"Minimum inhibitory concentration (MIC), Average Analyst 2",[1]; [9],15.6 ± 11.0 mg/mL
same,Growth of the fungus on plates,[1],no growth of the fungus was observed in any of the concentrations evaluated
same,Absorbance compared with the control,[1],the absorbance is lower compared to the absorbance of the control
same,"Minimum inhibitory concentration (MIC), Average","[1]; average of 2 analysts, with standard deviation",11.7 ± 5.5 mg/mL
same,Trend of absorbance with concentration,[2],the absorbance increases as the concentration of this compound increase
same,Growth of the fungus on plates,"[2]; both days, no change in salt color","a slight growth of the fungus was observed, mainly at concentrations of 250 to 2000 mg/mL"
same,Risk of developing cutaneous melanoma,[3],significantly increases the risk of developing cutaneous melanoma
same,Ethylene thiourea (ETU) in urine,[4],elevated levels of ethylene thiourea in urine
"N#Cc1c(Cl)c(Cl)c(Cl)c(C#N)c1Cl [Chlorothalonil, tetrachloro-isophthalonitrile]",Growth of the fungus on plates,[1],the fungus was not able to grow in any of the evaluated concentrations
same,MIC,"[1]; 6 technical replicates, 2 days, with standard deviation, 24 h at 37° C., read-out: Minimum inhibitory concentration (MIC), Average Analyst 1",7.8 mg/mL
same,MIC,"[1]; 6 technical replicates, 2 days, with standard deviation, 24 h at 37° C., read-out: Minimum inhibitory concentration (MIC), Average Analyst 2",23.4 ± 22.1 mg/mL
same,MIC,"[1]; average of 2 analysts, with standard deviation, read-out: Minimum inhibitory concentration (MIC), Average",15.6 ± 11 mg/mL
same,Absorbance compared with the control,[1],lower absorbances than the control in the 8 concentrations
same,Trend of absorbance with concentration,[2],trend similar to that of Mancozeb
same,MIC,"[2]; Fusarium oxysporum, average of a biological replica on 2 different days",1 mg/mL
same,Absorbance (570 nm),"[2]; at the concentration at which the MIC was established, average of 2 days",0.45 ± 0.04
same,Inhibition Type,[2]; class from MIC,Moderate (a moderate inhibition occurs in compounds with a MIC between 0.6 to 1 mg/mL)
same,Growth of the fungus on plates,[2]; day 1,the fungus was not able to grow in the highest concentrations of this fungicide
same,Growth of the fungus on plates,[2]; day 2,"a slight growth of the fungus was observed, mainly at concentrations of 125 to 2000 mg/mL"
same,Stability to hydrolysis,[5],stable to hydrolysis
same,Median lethal toxicity values (LC50),[6],less than 20 μg/L
same,Concentration causing a delay in reproduction,[7],32 ng/mL
same,"Concentration decreasing eggs per spawning, hatchability of eggs and survival of the fry",[8],6.5 ng/mL
